Measured values published in publication PMC4099972, “Extracts from New Zealand Undaria pinnatifida Containing Fucoxanthin as Potential Functional Biomaterials against Cancer in Vitro” (Journal of Functional Biomaterials, 2014).
Read-outs that look alike come from different tables or passages of the source.

Key:
[1] = tested on: Hep G2 cell line (hepatocellular carcinoma); assay: MTT cell viability assay, Hep G2; format: cell-based; details: Homo sapiens, HepG2, extract concentrations normalized to fucoxanthin purity, read-out: IC50, growth inhibition
Protocol: (§1) All cancer cell lines were maintained in tissue culture incubator at 37 °C and 5% carbon dioxide. Cell viability was determined by MTT assay as previously described with a slight modification. Briefly, the optimized seeding cell density was 5000 cells/well for A549 and WiDr, while for Hep G2, Malme-3M, SiHa, NCI-H522, Lovo, SK-N-SH, and MCF-7, the seeding cell density was 10,000 cells/well. Microplate with 96 wells was used for the experiment and each well contained 100 μL of medium with cancer cells. […] All cancer cell lines were cultured in the presence or absence of fucoxanthin extract or standard. […] An aliquot of 20 μL of MTT reagent in phosphate buffer saline at a concentration of 5 mg/mL was added into each well after experiment, and washed with 150 µL of PBS. After incubation for 4 h at 37 °C, the formed MTT-formazan was dissolved in 150 μL DMSO. The viable cell amount was determined by the absorbance at 540 nm using a multiplate-reader (UV-visible FLUOStar Omega Multidetection Microplate Reader, AlphaTech NZ Ltd., Auckland, New Zealand).

[2] = tested on: A549 cell line (lung carcinoma); assay: MTT cell viability assay, A549; format: cell-based; details: Homo sapiens, extract concentrations normalized to fucoxanthin purity, read-out: IC50, growth inhibition
Protocol: as §1

[3] = tested on: WiDr cell line (colon adenocarcinoma); assay: MTT cell viability assay, WiDr; format: cell-based; details: Homo sapiens, extract concentrations normalized to fucoxanthin purity, read-out: IC50, growth inhibition
Protocol: as §1

[4] = tested on: NCI-H522 cell line (lung cancer); assay: MTT cell viability assay, NCI-H522; format: cell-based; details: Homo sapiens, extract concentrations normalized to fucoxanthin purity, read-out: IC50, growth inhibition
Protocol: as §1

[5] = tested on: SK-N-SH cell line (neuroblastoma); assay: MTT cell viability assay, SK-N-SH; format: cell-based; details: Homo sapiens, extract concentrations normalized to fucoxanthin purity, read-out: IC50, growth inhibition
Protocol: as §1

[6] = tested on: Lovo cell line (colon adenocarcinoma); assay: MTT cell viability assay, Lovo; format: cell-based; details: Homo sapiens, extract concentrations normalized to fucoxanthin purity, read-out: IC50, growth inhibition
Protocol: as §1

[7] = tested on: MCF-7 cell line (breast adenocarcinoma); assay: MTT cell viability assay, MCF-7; format: cell-based; details: Homo sapiens, MCF7, extract concentrations normalized to fucoxanthin purity, read-out: IC50, growth inhibition
Protocol: as §1

[8] = tested on: SiHa cell line (cervix squamous carcinoma); assay: MTT cell viability assay, SiHa; format: cell-based, human; details: extract concentrations normalized to fucoxanthin purity, read-out: IC50, growth inhibition
Protocol: as §1

[9] = tested on: Malme-3M cell line (malignant melanoma); assay: MTT cell viability assay, Malme-3M; format: cell-based, human; details: for IC50: Homo sapiens, extract concentrations normalized to fucoxanthin purity, read-out: IC50, growth inhibition
Protocol: as §1

[10] = tested on: human dermal fibroblasts (HDFb); assay: MTT cell viability assay, non-cancer HDFb; format: cell-based; details: Fibroblast, extract concentrations normalized to fucoxanthin purity, read-out: IC50, growth inhibition (non-cancer cell line)
Protocol: (§2) All three cell lines were purchased from Invitrogen NZ Ltd. HDFb was maintained in Dulbecco’s Modified Eagle Medium supplemented with LSGS. HUVEC cells were maintained in Cascade Biologics Medium 200 supplemented with LSGS. HEK293 cells were maintained in RPMI 1640 culture medium supplemented with 1% Penicillin-Streptomycin, 4 mM L-glutamine and 10% of FBS. Cell viability was determined by MTT assay as previously described with a slight modification. Briefly, the optimized seeding cell density was 5000 cells/well for A549 and WiDr, while for Hep G2, Malme-3M, SiHa, NCI-H522, Lovo, SK-N-SH, and MCF-7, the seeding cell density was 10,000 cells/well. Microplate with 96 wells was used for the experiment and each well contained 100 μL of medium with cancer cells. […] All cancer cell lines were cultured in the presence or absence of fucoxanthin extract or standard. […] An aliquot of 20 μL of MTT reagent in phosphate buffer saline at a concentration of 5 mg/mL was added into each well after experiment, and washed with 150 µL of PBS. After incubation for 4 h at 37 °C, the formed MTT-formazan was dissolved in 150 μL DMSO.

[11] = tested on: human umbilical vein endothelial (HUVEC); assay: MTT cell viability assay, non-cancer HUVEC; format: cell-based; details: extract concentrations normalized to fucoxanthin purity, read-out: IC50, growth inhibition (non-cancer cell line)
Protocol: as §2

[12] = tested on: human embryonic kidney (HEK293); assay: MTT cell viability assay, non-cancer HEK293; format: cell-based; details: for IC50: Homo sapiens, extract concentrations normalized to fucoxanthin purity, read-out: IC50, growth inhibition (non-cancer cell line)
Protocol: as §2

[13] = tested on: all tested cancer cell lines (nine human cancer cell lines); assay: MTT cell viability, all tested cancer cell lines; format: cell-based; details: 72 h, read-out: cell viability compared with untreated cell cultures
Protocol: All nine cancer cell lines were treated with pure fucoxanthin (Sigma) at concentrations of 1.5625, 6.25, 12.5, 25, 50, 80, 100 µM for 24, 48 and 72 h, respectively (Figure 3). There was significant difference between high and low concentrations and between 24, 48 and 72 h treatments (p < 0.05).
Human cancer cell lines used in this study were purchased from ATCC (Cryosite Ltd., Sydney, NSW, Australia), including lung carcinoma line A549, colon adenocarcinoma lines WiDr and Lovo, lung cancer line NCI-H522, hepatocellular carcinoma line Hep G2, neuroblastoma line SK-N-SH, breast adenocarcinoma line MCF, cervix squamous line SiHa, and malignant melanoma line Malme-3M. All nine cell lines were maintained in RPMI 1640 culture medium supplemented with 1% Penicillin-Streptomycin, 4 mM L-glutamine and 10% of FBS except Malme-3M (20% FBS). […]
Cell viability was determined by MTT assay as previously described with a slight modification. […]
Pure fucoxanthin standard and all U. pinnatifida fucoxanthin extracts were dissolved in pure ethanol to 5 mM as a stock solution, and the final ethanol concentration was 2% in the culture medium. […] The viable cell amount was determined by the absorbance at 540 nm using a multiplate-reader (UV-visible FLUOStar Omega Multidetection Microplate Reader, AlphaTech NZ Ltd., Auckland, New Zealand). […]

human non-cancer cells = assay: MTT cell viability, human non-cancer cells (control study); format: cell-based; details: 1.56 μM
From the text: Three human non-cancer cell lines including human dermal fibroblasts (HDFb), human umbilical vein endothelial (HUVEC) and human embryonic kidney (HEK293) were used to determine in vitro toxicity of pure fucoxanthin and extracts from NZ U. pinnatifida. All three cell lines were purchased from Invitrogen NZ Ltd. HDFb was maintained in Dulbecco’s Modified Eagle Medium supplemented with LSGS. HUVEC cells were maintained in Cascade Biologics Medium 200 supplemented with LSGS. HEK293 cells were maintained in RPMI 1640 culture medium supplemented with 1% Penicillin-Streptomycin, 4 mM L-glutamine and 10% of FBS.
Cell viability was determined by MTT assay as previously described [34] with a slight modification. […] Treatment time was 24, 48 or 72 h.
Pure fucoxanthin standard and all U. pinnatifida fucoxanthin extracts were dissolved in pure ethanol to 5 mM as a stock solution, and the final ethanol concentration was 2% in the culture medium. An aliquot of 20 μL of MTT reagent in phosphate buffer saline at a concentration of 5 mg/mL was added into each well after experiment, and washed with 150 µL of PBS. After incubation for 4 h at 37 °C, the formed MTT-formazan was dissolved in 150 μL DMSO. The viable cell amount was determined by the absorbance at 540 nm using a multiplate-reader (UV-visible FLUOStar Omega Multidetection Microplate Reader, AlphaTech NZ Ltd., Auckland, New Zealand). […]

rats = tested on: rats; design: method as in doi:10.3136/nskkk.55.304; details: oral, 750 mg/kg for 28 days, purity 95%; cited from earlier work
mice = tested on: mice; design: method as in PMID 22072997; details: repeated dose of 500 and 1000 mg/kg for 30 day; cited from earlier work
mouse bone marrow cells = tested on: mouse bone marrow cells; design: method as in PMID 21720124, PMID 21720125; details: cited from earlier work
[14] = cited from earlier work

CC(=O)O[C@H]1CC(C)(C)C(=C=C/C(C)=C/C=C/C(C)=C/C=C/C=C(C)/C=C/C=C(\C)C(=O)C[C@@]23O[C@]2(C)C[C@@H](O)CC3(C)C)[C@](C)(O)C1 [Pure fucoxanthin, fucoxanthin]
IC50 ([1]; Hep G2, 48 h treatment): 58.9 ± 1.23 µM | IC50 ([1]; Hep G2, 72 h treatment): 25.9 ± 1.69 µM | IC50 ([2]; A549, 48 h treatment): 44.7 ± 2.26 µM | IC50 ([2]; A549, 72 h treatment): 25.6 ± 1.07 µM | IC50 ([3]; 48 h treatment): 42.3 ± 1.25 µM | IC50 ([3]; 72 h treatment): 25 ± 1.63 µM | IC50 ([4]; NCI-H522, 48 h treatment): 46.1 ± 1.07 µM | IC50 ([4]; NCI-H522, 72 h treatment): 24.5 ± 1.58 µM | IC50 ([5]; 48 h treatment): 52.7 ± 1.07 µM | IC50 ([5]; 72 h treatment): 31.2 ± 2.62 µM | IC50 ([6]; 48 h treatment): 39.6 ± 0.94 µM | IC50 ([6]; 72 h treatment): 21.8 ± 1.17 µM | IC50 ([7]; MCF-7, 48 h treatment): 44 ± 2.61 µM | IC50 ([7]; MCF-7, 72 h treatment): 22.5 ± 1.26 µM | IC50 ([8]; 48 h treatment): 37.8 µM | IC50 ([8]; Homo sapiens, 48 h, 48 h treatment): 37.6 ± 1.49 µM | IC50 ([8]; Homo sapiens, 72 h, 72 h treatment): 18.9 ± 2.16 µM | IC50 ([9]; 48 h treatment): 28 ± 1.36 µM | IC50 ([9]; 72 h treatment): 17.3 ± 2.65 µM | concentration from which cell viability is significantly decreased ([9]; within 24 h): ≥ 50 µM | IC50 ([10]; 48 h treatment): 32.2 µM | IC50 ([10]; 72 h treatment): 15.7 µM | IC50 ([11]; 48 h treatment): 3.98 µM | IC50 ([11]; 72 h treatment): 3.36 µM | growth inhibition effect on cells ([12]; HEK293, 6.25 μM, 24- and 48-h treatment): no growth inhibition effect | IC50 ([12]; HEK293, 48 h treatment): 18.7 µM | IC50 ([12]; HEK293, 72 h treatment): 7.66 µM | viability at 100 µM [13]: ~20% | effect on growth of human non-cancer cells (human non-cancer cells): promote the growth | toxicity at repeated doses (rats): did not show obvious toxicity | histological abnormality in tissues (liver, kidney, spleen, gonadal) (mice): no abnormality was found | genotoxic/mutagenic effects (mouse bone marrow cells): not found | 50% lethal dose [14]: more than 2000 mg/kg body weight
